Patent US4829086A, “Soft β-adrenergic blocking agents” (priority 1985, dated 1989)
Structures can show the parent of a compound that is named as a salt. Where two headings read alike, the source gives them in different places.

Legend:
[1] = Hydrolytic rate in 0.01 N aqueous sodium hydroxide, pH 12.0; type: physicochemical; conditions: for Observed pseudo first order hydrolytic rate constant k: 0.01 N NaOH, ± SEM; for Observed pseudo first order hydrolytic rate constant k / half-life: pH 12.0, ionic strength 0.10 M (NaCl), 27.3 ± 0.2° C.; for half-life: 0.01 n naoh, pH 12, 0.01 N NaOH, read-out: Half-life t1/2
Experimental: (§1) Analytical Methods. A high pressure liquid chromatography (HPLC) method was developed for the determination of the rate constants. The chromatographic analysis was performed in a system consisting of Waters Associates Model 600-A Solvent Delivery System, Model U-6K Injector and Model 440 Dual Channel Absorbance Detector operated at 254 and 280 nm. A 30 cm×3.9 mm (internal diameter) reverse phase μBondpack C18 column (Waters Associates), operated at ambient temperature, was used for all separations. When plasma samples were analyzed, the column was protected with a 2.3 cm×3.9 mm (internal diameter) Guard Column (Waters) packed with μBondpack C18/Corasil packing material. The mobile phase used for the separation of 17 and its degradation product, 5, consisted of water, 1-hexane sulfonic acid in acetic acid (B-6 reagent, Waters), 0.1M triethanolamine and methanol (100:1:100:799). […] For the separation of compounds 10-16 and 18 and their degradation product 5, a mobile phase consisting of water, 1-hexane sulfonic acid in acetic acid (B-6 reagent, Waters), 0.1M triethanolamine and methanol (390:1:10:599) was used.
(§2) Determination of the Hydrolytic Rate Constants in Aqueous Solutions. A 0.01M phosphate buffer and 0.01N sodium hydroxide solution were prepared from freshly distilled deionized water. This ionic strength was maintained at 0.1M with sodium chloride. The pH of the phosphate buffer was determined at 37.0° C. with a pH meter standardized at this temperature. For determination of the hydrolytic rate constants, a fresh concentrated solution of the ester in methanol was added to the hydrolytic medium previously equilibrated to the desired temperature and mixed thoroughly to result in an initial concentration of about 5×10^-4 mol. liter^-1. All reactions were run under pseudo first order conditions. Samples of 25 μL were injected into the column at various time intervals and the pseudo first order rate constants were determined from disappearance of the compound by linear regression of natural logarithm of the peak height versus time plots. The half-life and standard error of the rate constant were calculated for each run.

[2] = Enzymatic hydrolytic cleavage in human plasma; type: in vitro ADME; conditions: for Observed first order hydrolytic rate constant k: ± SEM; for half-life at 1000 µM: human, plasma
Experimental: as §1, §2
Determination of the Enzymatic Hydrolytic Cleavage Rates in Human Plasma. The freshly collected plasma used was obtained from the Civitan Regional Blood Center, Inc. (Gainesville, Fla.) and contained about 80% plasma diluted with anticoagulant citrate phosphate dextrose solution, U.S.P. The plasma was stored in a refrigerator and used within one week from the date it was collected.
A portion of 50 μL of a freshly prepared solution of the compound in methanol was added to 10 mL plasma, previously equilibrated at 37.0° C. in a water bath, and mixed thoroughly to result in an initial concentration of 1×10^-3 mol. liter^-1. One mL samples of plasma were withdrawn from the test medium, mixed immediately with 4.0 mL ice cold 95% v/v ethanol, centrifuged and the supernatant analyzed by HPLC. The first order hydrolytic rate constant was determined as before in the aqueous solutions and the results are listed in TABLE II below.

[3] = tested on: heart rate response to isoproterenol (β-adrenergic); assay: Cardiovascular experiments in dogs: blockade of isoproterenol heart rate response; type: in vivo, mongrel dogs; conditions: for Duration, Mean (time at which response to isoproterenol had returned to control levels) / Duration, Range (time at which response to isoproterenol had returned to control levels) / Maximal blockade, Mean (time necessary to reach maximal blockade) / Maximal blockade, Range (time necessary to reach maximal blockade): 1 mg/kg i.v.; for Maximal blockade, Mean (time necessary to reach maximal blockade) / Maximal blockade, Range (time necessary to reach maximal blockade): 15 minute measurements
Experimental: Method. Healthy, mongrel dogs were anesthetized with a combination of morphine sulfate (2.0 mg/kg, subcutaneously) followed in 20 minutes with pentabarbital sodium (15 mg/kg, intravenously). Supplemental pentabarbital was given as necessary. A femoral vein was catheterized with polyethylene tubing to the level of the heart for injecting drug solutions. A polyethylene tube filled with heparinized saline was inserted through the femoral artery and advanced to the thoracic aorta for the measurement of arterial pressure. The left carotid artery was cannulated with a Millar® transducer-tip catheter for measurement of left ventricular pressure (LVP). The rising slope of the LVP signal was differentiated to give dP/dt, an estimate of myocardial contractility. Heart rate was determined via a Grass cardiotachometer triggered by the R wave of the lead II EKG. All variables were recorded on a Grass polygraph.
Dose-response curves were constructed for each experimental variable to graded i.v. doses of the β-adrenergic agonist, isoproterenol. A period of 3-5 minutes was allowed after each injection for variables to return to base-line. Following this, one of the four experimental β-adrenergic blocking agents was given i.v. over a one-minute period. Abbreviated dose-response curves (2-3 dose points) were again constructed to isoproterenol at 15, 30, 45, 60, 75 and 90 minutes after the administration of the test blockers. Using a 50-beat per minute (bpm) increase in heart rate as criteria, the degree of blockade was determined by dividing the dose of isoproterenol needed to produce a 50 bpm increase at various times following administration of an antagonists by the dose needed for this effect during the control period. The doses of the experimental β-adrenergic antagonists given were determined from previous experiments to produce an approximate two- or four-fold blockade of the heart rate response to isoproterenol.

[4] = 37.0 ± 0.1° C., read-out: Half-life t1/2

SMILES | Observed pseudo first order hydrolytic rate constant k [1] | half-life [1] | Observed first order hydrolytic rate constant k ([2]; 37.0 ± 0.1° C.) | half-life at 1000 µM [2, 4] | Duration, Mean (time at which response to isoproterenol had returned to control levels) [3] | Duration, Range (time at which response to isoproterenol had returned to control levels) [3] | Maximal blockade, Mean (time necessary to reach maximal blockade) [3] | Maximal blockade, Range (time necessary to reach maximal blockade) [3] | hydrolysis kinetics ([1]; pH 12, 1:2 mixture of two isomers) | hydrolysis in human plasma ([2]; 37.0 ± 0.1° C., three hours where stated, oxalate hydrate) | duration of action ([3]; i.v.) | half-life at 1000 µM ([2]; shortest, read-out: plasma hydrolytic half-life) | time after administration at which antagonism dissipated / heart rate responsiveness returned to control ([3]; i.v.) | β1-antagonist activity / blocking of cardiac effects of isoproterenol ([3]; i.v., FIG. 4)
CCOC(=O)Cc1ccc(OCC(O)CNC(C)C)cc1 (centres unmarked) [Compound 10, Ethyl 4-(2-hydroxy-3-isopropylamino)-propoxyphenylacetate] | 0.117 ± 0.001 min⁻¹ | 5.91 min | 0.238 ± 0.010 min⁻¹ | 2.91 min | ~ 50 min | 45 to 60 min | 15 min | 15-15 min | – | – | – | – | – | –
CC(C)NCC(O)COc1ccc(CC(=O)OC2C(C)CCCC2C)cc1 (centres unmarked) [Compound 16, 2,6-Dimethylcyclohexyl 4-(2-hydroxy-3-isopropylamino)propoxyphenylacetate oxalate hydrate] | – | – | 1.64 ± 0.14 × 10^-2 min^-1 | 42.2 min | ~ 65 min | 45 to 90 min | 38 min | 15 to 60 min | biphastic kinetics | did not hydrolyze in the plasma within 3 hours | much more variable and generally longer | – | – | –
CC(C)NCC(O)COc1ccc(CC(=O)OC2CCCCC2)cc1 (centres unmarked) [Compound 15, Cyclohexyl 4-(2-hydroxy-3-isopropylamino)propoxyphenylacetate oxalate 3/4 hydrate] | 4.96 ± 0.03 × 10^-2 min^-1 | 14 min | 1.46 ± 0.15 min⁻¹ | 0.47 min | ~ 85 min | 75 to 90 min | 20 min | 15 to 30 min | – | – | longest duration of action | < 1 min | approximately 90 minutes | most potent in blocking the cardiac effects of isoproterenol
